Patent US20250230159A1, “FUSED HETEROCYCLIC COMPOUNDS AS MODULATORS OF RAS SIGNALLING” (Shenzhen Ionova Life Science Co., Ltd., priority 2022, published 2025)

How the values were obtained:
[1] = biological target: KRAS-G12C/SOS1 interaction (Homo sapiens (Human), UniProt Q07889); assay: Protein-Protein Interaction (PPI) assay, SOS1-KRAS binding assay kit (HTRF); conditions: read-out: PPI Assay IC50
pERK in Hela cells = assay: Phospho-ERK (p-ERK) assay in Hela cells; type: cell-based; conditions: Homo sapiens, Table 1, 1 hour with compound, β-actin normalized
In short: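 Cells were treated for 1 h at 37 °C with compound in a 9-point, 3-fold series from 10 μM, then fixed and stained for pERK and β-actin. An In-Cell Western read-out normalized pERK to β-actin and to vehicle wells to give % inhibition and IC50.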

Chain of KRAS-G12C/SOS1 interaction (Q07889 whole entry, stated change not applied): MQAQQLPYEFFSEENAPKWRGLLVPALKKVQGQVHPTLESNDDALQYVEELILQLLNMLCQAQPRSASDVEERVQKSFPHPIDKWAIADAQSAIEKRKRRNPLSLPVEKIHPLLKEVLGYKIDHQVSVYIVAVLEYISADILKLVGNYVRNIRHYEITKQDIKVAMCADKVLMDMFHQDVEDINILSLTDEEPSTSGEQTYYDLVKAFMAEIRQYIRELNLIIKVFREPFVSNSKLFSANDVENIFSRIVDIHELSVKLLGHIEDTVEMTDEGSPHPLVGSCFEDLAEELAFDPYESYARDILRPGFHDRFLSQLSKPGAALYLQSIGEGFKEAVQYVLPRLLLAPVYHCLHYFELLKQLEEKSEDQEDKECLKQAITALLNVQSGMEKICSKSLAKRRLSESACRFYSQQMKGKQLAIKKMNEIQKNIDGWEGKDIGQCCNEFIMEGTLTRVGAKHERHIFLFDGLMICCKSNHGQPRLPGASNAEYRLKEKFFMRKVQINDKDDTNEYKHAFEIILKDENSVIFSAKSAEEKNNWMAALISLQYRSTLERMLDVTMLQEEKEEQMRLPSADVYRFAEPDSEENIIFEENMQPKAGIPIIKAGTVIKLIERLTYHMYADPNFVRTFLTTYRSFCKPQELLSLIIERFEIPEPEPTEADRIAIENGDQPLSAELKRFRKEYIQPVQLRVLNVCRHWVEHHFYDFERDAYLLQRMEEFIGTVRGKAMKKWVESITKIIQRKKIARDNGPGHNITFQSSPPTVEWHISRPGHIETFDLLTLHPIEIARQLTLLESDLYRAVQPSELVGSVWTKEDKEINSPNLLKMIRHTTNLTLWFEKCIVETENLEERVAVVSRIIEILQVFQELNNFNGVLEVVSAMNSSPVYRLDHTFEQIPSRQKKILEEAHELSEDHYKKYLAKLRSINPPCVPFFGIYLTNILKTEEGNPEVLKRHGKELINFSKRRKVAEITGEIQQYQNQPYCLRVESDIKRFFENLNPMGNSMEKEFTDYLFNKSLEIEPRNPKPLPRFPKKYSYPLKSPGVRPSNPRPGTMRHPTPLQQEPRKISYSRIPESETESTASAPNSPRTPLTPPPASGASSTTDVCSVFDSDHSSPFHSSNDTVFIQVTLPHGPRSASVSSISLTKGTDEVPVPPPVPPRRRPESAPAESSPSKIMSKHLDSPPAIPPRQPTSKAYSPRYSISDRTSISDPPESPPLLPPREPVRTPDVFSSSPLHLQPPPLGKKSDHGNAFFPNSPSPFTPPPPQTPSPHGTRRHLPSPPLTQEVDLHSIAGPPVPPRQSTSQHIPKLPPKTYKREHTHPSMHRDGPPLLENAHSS

Compound | IC50 [1] [µM] | IC50 (pERK in Hela cells) [µM]
Cc1nc(N[C@H](C)c2cccc(C(F)F)c2F)c2cc(C3=CCS(=O)(=O)CC3)c3nncn3c2n1 [Example 151, (R)-4-(4-((1-(3-(difluoromethyl)-2-fluorophenyl)ethyl)amino)-2-methyl-[1,2,4]triazolo[4′,3′:1,6]pyrido[2,3-d]pyrimidin-6-yl)-3,6-dihydro-2H-thiopyran 1,1-dioxide] | < 0.1 | > 0.1
Cc1nc(N[C@H](C)c2cccc(C(F)F)c2F)c2cc(C3CCS(=O)(=O)CC3)c3nncn3c2n1 [Example 152] | < 0.1 | > 0.1
C[C@@H](Nc1ncnc2c1cc(N1CCOCC1)c1ncnn12)c1cc(N)cc(C(F)(F)F)c1 [Example 153, (R)—N-(1-(3-amino-5-(trifluoromethyl)phenyl)ethyl)-4-morpholino-[1,2,4]triazolo[1′,5′:1,6]pyrido[2,3-d]pyrimidin-6-amine] | < 0.1 | > 0.1
Cc1nc2c(N3CCOCC3)cc3c(N[C@H](C)c4cccc(C(F)F)c4F)ncnc3n2n1 [Example 154] | < 0.1 | < 0.1
Cc1nc2c(N3CCOC4(CC4)C3=O)cc3c(N[C@H](C)c4cccc(C(F)F)c4F)ncnc3n2n1 [Example 156] | < 0.1 | < 0.1
Cc1nc2c(N3CC4(CC4)OCC3=O)cc3c(N[C@H](C)c4cccc(C(F)F)c4F)ncnc3n2n1 [Example 157] | < 0.1 | < 0.1
C[C@@H](Nc1ncnc2c1cc(N1CCOC[C@@H]1C)c1nncn12)c1cc(N)cc(C(F)(F)F)c1 [Example 159] | < 0.1 | > 0.1
Cc1nc2c(C3(C(F)(F)F)CC3)cc3c(N[C@H](C)c4cccc(C(F)F)c4F)ncnc3n2n1 [Example 169, (R)—N-(1-(3-(difluoromethyl)-2-fluorophenyl)ethyl)-2-methyl-4-(1-(trifluoromethyl)cyclopropyl)-[1,2,4]triazolo[1′,5′:1,6]pyrido[2,3-d]pyrimidin-6-amine] | < 0.1 | < 0.1
Cc1nc2c(C3(C#N)CC3)cc3c(N[C@H](C)c4cccc(C(F)F)c4F)ncnc3n2n1 [Example 170, (R)-1-(6-((1-(3-(difluoromethyl)-2-fluorophenyl)ethyl)amino)-2-methyl-[1,2,4]triazolo[1′,5′:1,6]pyrido[2,3-d]pyrimidin-4-yl)cyclopropane-1-carbonitrile] | < 0.1 | < 0.1
Cc1nc(N[C@H](C)c2cccc(C(F)F)c2F)c2cc(C3(C(F)F)CC3)c3nc(C)nn3c2n1 [Example 171] | < 0.1 | < 0.1
Cc1nc2c(N3CC4(COC4)C3)cc3c(N[C@H](C)c4cccc(C(F)F)c4F)ncnc3n2n1 [Example 174] | < 0.1 | < 0.1

Continued, in another order:

IC50 [1] [µM] | Compound | IC50 (pERK in Hela cells) [µM]
< 0.1 | Cc1nc2c(N3CCOCC3=O)cc3c(N[C@H](C)c4cccc(C(F)F)c4F)ncnc3n2n1 [Example 155] | < 0.1
< 0.1 | Cc1nc2c(N3CCOCCC3=O)cc3c(N[C@H](C)c4cccc(C(F)F)c4F)ncnc3n2n1 [Example 158] | < 0.1
< 0.1 | C[C@@H](Nc1ncnc2c1cc(N1CCOCC1=O)c1nncn12)c1cccc(C(F)F)c1F [Example 162] | < 0.1
< 0.1 | Cc1nc(N[C@H](C)c2cccc(C(F)F)c2F)c2cc(N3CCOCC3=O)c3nncn3c2n1 [Example 163] | < 0.1
< 0.1 | C[C@@H](Nc1ncnc2c1cc(N1CCN(C)C(=O)C1)c1nncn12)c1cccc(C(F)F)c1F [Example 164] | < 0.1
< 0.1 | C[C@@H](Nc1ncnc2c1cc(N1CCOC1=O)c1nncn12)c1cccc(C(F)F)c1F [Example 167] | < 0.1
< 0.1 | C[C@@H](Nc1ncnc2c1cc(N1C(=O)COC[C@@H]1C)c1nncn12)c1cccc(C(F)F)c1F [Example 168] | < 0.1
< 0.1 | C[C@@H](Nc1ncnc2c1cc(C1(C(F)(F)F)CC1)c1nncn12)c1cccc(C(F)F)c1F [Example 172] | < 0.1
< 0.1 | C[C@@H](Nc1ncnc2c1cc(C1(C(F)F)CC1)c1nncn12)c1cccc(C(F)F)c1F [Example 173] | < 0.1
